One compound from ChEMBL document CHEMBL5233288, “Ginkgo Biflavones Cause p53 Wild-Type Dependent Cell Death in a Transcription-Independent Manner of p53” (J Nat Prod, 2023) can be followed below.

The nature of series [1]: Toxicity against BALB/c nude mouse xenografted with human HCT-116 cells assessed as body weight loss at 30 mg/kg, ip administered once every 3 days for 12 days and measured every 2 days. Type of series: organism-based. The following applies: in vivo, 288 h, time 12 day. In general terms: Xenograft models place foreign cells or tissue in a host animal.
The test system of another series is HCT-116. The experiment in a line: Antitumor activity against human HCT-116 cells xenografted in BALB/c nude mouse assessed as reduction in tumor volume at 30 mg/kg, ip administered once every 3 days for 12 days and measured every 2 days. In kind it is functional, organism-based. The following applies: time 12.0 day.

The structures appear in SMILES notation. Active and inactive are the calls of the source. The calls are words filed in the database; no cut-off is given here.

As for `O=c1[nH]cc(F)c(=O)[nH]1` [FLUOROURACIL], in series [1], the Activity entry is “Toxic”. Further, the outcome in the series with HCT-116 was Active.
